Target: T1, rat intestinal α-glucosidase
T1 construct: gene Si; native commercial rat intestinal preparation (Sigma I1630, usually intestinal acetone powder)
Assay: p-nitrophenyl-α-D-glucopyranoside hydrolysis, absorbance at […] nm
Assay type: biochemical
Conditions: 5 mM PNPG stock, pH 6.8-6.9, 37 °C, 10 min preincubation; positive control

C[C@H]1O[C@H](O[C@H]2[C@H](O)[C@@H](O)[C@@H](O[C@H]3[C@H](O)[C@@H](O)C(O)O[C@@H]3CO)O[C@@H]2CO)[C@H](O)[C@@H](O)[C@@H]1N[C@H]1C=C(CO)[C@@H](O)[C@H](O)[C@H]1O (stereo partly shown) [acarbose]
IC50 of inhibitory activity / α-Glucosidase: 510 ± 70 µg/mL

Source: article PMC10261806, “Development of lentil peptides with potent antioxidant, antihypertensive, and antidiabetic activities along with umami taste” (Food Science & Nutrition, 2023)
